Consider one substance from patent US9856480B2, “Dnazyme for silencing the expression of EGFR” (DCB-USA LLC, priority 2013, dated 2018).

Strand notation (5' to 3'): a small letter for the sugar, then the base; units joined by * are phosphorothioate-linked, units joined directly phosphodiester-linked; [ ] holds rarer units or linkages, { } end groups; capitals alone tell only the bases. d = 2'-deoxy (DNA)

Data set [1] deals with T790M EGFR mRNA. Briefly: Real-time PCR of EGFR mRNA knockdown. The note with it: 100 nM with lipofectamine 2000, 48 h. Format: cell-based, human. As to the method: (§1) A549, CL1-5, H1975, or CL97 was seeded onto 6-well at 3×10^5 cells/well and cultured overnight. Then, cells were separately treated with 100 nM DzControl or DzT790M-1 with lipofectamine 2000 (Invitrogen). After 48 h, total mRNA were extracted from DNAzyme-treated cells by Mestrisol following manufacturer's protocol. cDNA were synthesized by using RT III kit with random hexamers as primers (Invitrogen). The PCR primers were synthesized by Genomics BioSci & Tech (Taipei, Taiwan). The sequences of PCR primers are listed as follows: […]
(§2) The parameters for PCR were: 95° C. for 10 min, then 25 cycles of PCR at 95° C. for 30 s, 60° C. for 30 s, and 72° C. for 60 s. 3% agarose gels were used for electrophoresis of PCR products. The intensity of bands were quantified by Image J. Quantitative RT-PCR was performed on 40 ng total mRNA with the LightCycler 480 system (Roche). The PCR mix contained 5 μl of 2× Probe Master mix, 100 nM of UPL probe (Roche Diagnostics, Penzberg, Germany), 200 nM of forward primer and reverse primer, 0.1 ul RNAseout (Invitrogen), and 0.025 ul RTIII enzyme (Invitrogen) in a total volume of 10 μl. PCR parameters were as follows: 50° C. for 40 min, then 45 cycles of PCR at 95° C. for 10 s, 60° C. for 10 s, and 72° C. for 2 s. Data were analyzed by LC480 software (Roche Diagnostics, Penzberg, Germany). The relative amount of EGFR mRNA was normalized to ACTB mRNA. The sequences of PCR primers are as follows: […]
(§3) To examine the allele selectivity of DzT790M-1, EGFR mRNA knockdown efficiency was detected in two cell lines harboring wild-type EGFR (A549, CL1-5) and two cell lines containing EGFR T790M mutation (H1975, CL97). A549, CL1-5, H1975, or CL97 was seeded onto 6-well at 3×10^5 cells/well and cultured overnight. Then, cells were separately treated with 100 nM DzControl or DzT790M-1 with lipofectamine 2000 (Invitrogen). After 48 h, total mRNA was extracted. […] DzT790M-1 knocked down 68.2% and 77.4% T790M EGFR mRNA expression in H1975 and CL97 cells respectively. In contrast, in A549 and CL1-5 cells, only 1.1% and 19.2% wild-type EGFR mRNA expression was affected.
In general terms: In qPCR the cycle at which signal appears reflects the starting amount.

The subject of data set [2] is wild-type EGFR mRNA. Nature of the data set: Real-time PCR of EGFR mRNA knockdown. Type of data set: cell-based, human. Conditions: 100 nM with lipofectamine 2000, 48 h. How it is done: as §1, §2, §3
The test system of data set [3] is T790M EGFR mRNA. Nature of the data set: Quantitative real-time PCR of EGFR mRNA knockdown. Type of data set: cell-based, human. The note with it: for T790M EGFR mRNA expression knocked down (quantitative real-time PCR): 100 nM, 48 h. As to the method: as §1, §2, §3
Data set [4] concerns cleaved PARP. Briefly: Immunoblotting against cleaved form of PARP. Format: cell-based, human. Conditions: H1975 and CL97 cells; 100 nM. How it is done:
A549, CL1-5, H1975, or CL97 was seeded onto 6-well at 3×10^5 cells/well and cultured overnight. Then, cells were separately treated with 100 nM DzControl or DzT790M-1 with lipofectamine 2000 (Invitrogen). The transfected A549 and CL1-5 cells were serum-starved for 24 h and treated with 100 ng/ml of EGF at 37° C. for 15 min. 72 h after transfection, cell were collected for analysis. Cells were washed twice by ice-cold PBS and then total protein was extracted by RIPA buffer with protease inhibitor (Roche). 50 μg of total protein from the supernatants were boiled for 5 min at 95° C. The samples were resolved on 10% SDS-PAGE gel and transferred onto nitrocellulose membranes. EGFR expression and downstream signaling were detected by using primary antibodies specific to human pEGFR(Y1068) (Cell signaling), tEGFR (Santa Cruz), pSTAT3 (Y705) (Cell signaling), tSTAT3 (Cell signaling), pAKT (5473)(Cell signaling), tAKT (Santa Cruz), pERK (T202/Y204) (Cell signaling), tERK (Santa Cruz), and cleaved PARP (Cell signaling) at 1:1000 dilution and β-actin (Santa Cruz) at 1:10000 dilution, respectively. […]
EGFR and downstream signaling pathway regulates important cell functions including cell proliferation and survival. In order to examine functional effects of DzT790M-1 on cell survival, the number of cells was counted after DzControl or DzT790M-1 transfection respectively. […]
(In general: A western blot detects proteins with antibodies after separation by electrophoresis.)

Data set [5] has as its system H1975 cells (EGFR T790M). Briefly: Cell viability assay (MTT). Format: cell-based, human. Conditions: 100 nM by lipofectamine transfection, 72 h.
Data set [6] deals with T790M-harboring cancer cells. Nature of the data set: Anti-proliferation comparison of T790M DNAzymes. Type of data set: cell-based.
In data set [7] the target is EGFR T790M (Homo sapiens, UniProt P00533, L858R/T790M). Nature of the data set: Western immunoblotting of EGFR expression and downstream signaling in EGFR T790M mutant cell lines. The note with it: H1975^TM/LR; 100 nM; 72 h; 100 ng/ml EGF 15 min.
Method: (§4) Cells were harvested 72 h after transfecting with 100 nM DzC or DzT. 100 ng/ml EGF were added into culture medium 15 min before cell lysates were harvested. Cell lysates were analyzed by immunoblotting with indicated primary antibodies.
(§5) Cells were harvested 72 h after transfecting with 100 nM cDzC or cDzT. 100 ng/ml EGF were added into culture medium 15 min before cell lysates were harvested. Cell lysates were analyzed by immunoblotting with indicated primary antibodies.
(§6) A549, CL1-5, H1975, or CL97 was seeded onto 6-well at 3×10^5 cells/well and cultured overnight. […] The transfected A549 and CL1-5 cells were serum-starved for 24 h and treated with 100 ng/ml of EGF at 37° C. for 15 min. 72 h after transfection, cell were collected for analysis. Cells were washed twice by ice-cold PBS and then total protein was extracted by RIPA buffer with protease inhibitor (Roche). 50 μg of total protein from the supernatants were boiled for 5 min at 95° C. The samples were resolved on 10% SDS-PAGE gel and transferred onto nitrocellulose membranes. […] Secondary antibodies against rabbit IgG or mouse IgG was used at 1:5000 dilution. Protein bands on membrane were visualized by exposure to the chemiluminescence substrate.
(§7) To examine the effects of DzT790M on protein expression level of EGFR and its downstream signaling, western immunoblotting was performed on DzT790M transfected cells. A549, CL1-5, H1975, or CL97 was seeded onto 6-well at 3×10^5 cells/well and cultured overnight. […] The transfected A549 and CL1-5 cells were serum-starved for 24 h and treated with 100 ng/ml of EGF at 37° C. for 15 min. 72 h after transfection, cell were collected for analysis. Cells were washed twice by ice-cold PBS and then total protein was extracted by RIPA buffer with protease inhibitor (Roche).
(§8) The transfected CL1-5 cells were serum-starved for 24 h and treated with 100 ng/ml of EGF at 37° C. for 15 min. 72 h after transfection, cells were collected for western blotting analysis following the above mentioned procedure. Expression of EGFR and downstream signaling were examined by primary antibodies against human pEGFR (Y1068), tEGFR, pSTAT3 (Y705), tSTAT3, pAKT (S473), tAKT, pERK (T202/Y204), and tERK at 1:1000 dilution and β-actin at 1:10000 dilution, respectively.
(§9) H1975 was seeded onto 6-well at 3×10^5 cells/well and cultured overnight. […] 72 h after transfection, cells were collected for western blotting analysis following the above mentioned procedure. Expression of EGFR and downstream signaling were examined by primary antibodies against human pEGFR(Y1068), tEGFR, pSTAT3 (Y705), tSTAT3, pAKT (S473), tAKT, pERK (T202/Y204), and tERK at 1:1000 dilution and β-actin at 1:10000 dilution, respectively.
(§10) H1975^TM/LR and CL97^TM/GA cells were harvested 72 h after transfecting with DzC or DzT. […]
Data set [8] has as its system EGFR T790M. The data set is described as above. Conditions: 100 nM.
Method: as §4, §5, §6, §7, §8, §9, §10

As to “DzT790M-1: 10-23 DNAzyme against EGFR T790M mRNA, arms 10/4, phosphorothioate ends: AGCTGCATGAGGCTAGCTACAACGAGAGC (DNA dA*dGdCdTdGdCdAdTdGdAdGdGdCdTdAdGdCdTdAdCdAdAdCdGdAdGdAdG*dC; further chemistry not fully specified)”, the “remained EGFR mRNA expression (real-time PCR)” value is on record as 54% in data set [1] (CL97 cells), 32% in data set [1] (H1975 cells), 121% in data set [2] (A549 cells) and 95% in data set [2] (CL1-5 cells). For the same substance, the results for the “T790M EGFR mRNA expression knocked down (quantitative real-time PCR)” value in data set [3] (CL97 cells) and in data set [3] (H1975 cells) were 77.4% and 68.2%, respectively. Further, in data set [3] (quantitative real-time PCR, H1975, CL97 vs A549, CL1-5), the “increased knockdown efficiency toward T790M EGFR mRNA over wild-type counterpart” value was “at least 3.5 fold”. Besides, in data set [4], the “level of cleaved PARP compared to DzControl treated group” value is reported as “increased level”. Also, the anti-proliferation effect in data set [5] came to 50%. For the same substance, in data set [6], the “anti-proliferation effect on T790M-harboring cancer cells, ranking among SEQ ID NOs:1-7” value is “most effective”. In addition, the “EGFR protein expression and downstream signaling including EGFR, STAT3, and ERK after EGF treatment” value in data set [7] is given as “remained its suppression effect”. For the same substance, in data set [8] (H1975 and CL97 cells, 72 h, ERK not in H1975 cells), the “phosphorylation of EGFR Y1068, STAT3 Y705, AKT S473 and ERK T202/Y204” value is on record as “decreased phosphorylation”. Besides, the EGFR protein expression result in data set [8] (H1975 and CL97 cells, 72 h after transfection) is given as “significantly silenced”. The “EGFR T790M expression and downstream signaling after EGF treatment” value in data set [8] (T790M mutant cells, 72 h, 100 ng/ml EGF 15 min) is given as “remains its suppression effect”.
